Laboratory results as given in patent publication US12384753B2, “17-beta-hydroxysteroid dehydrogenase type 13 inhibitors and methods of use thereof” (Enanta Pharmaceuticals, Inc., priority 2021, dated 2025).

Target: Recombinant human HSD17B13 (Homo sapiens (Human), UniProt Q7Z5P4)
Assay: HSD17B13 rapid-fire mass spectrometry assay (RF/MS assay)
Assay type: biochemical
Settings: inhibition of HSD17B13; LTB4 10 μM, NAD+ 0.5 mM, RT 3 h; IC50 ranges A-E
In short: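 Product 12-oxo-LTB4 and substrate LTB4 quantified by RapidFire triple-quad MS in negative mode, giving percent conversion. Reaction: 80 nM recombinant hHSD17B13, 10 μM LTB4, 0.5 mM NAD+, compound up to 100 μM, pH 7.5, RT, 3 h. Variable-slope fit gave IC50; run in duplicate.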

Chain of Recombinant human HSD17B13 (Q7Z5P4 20-300): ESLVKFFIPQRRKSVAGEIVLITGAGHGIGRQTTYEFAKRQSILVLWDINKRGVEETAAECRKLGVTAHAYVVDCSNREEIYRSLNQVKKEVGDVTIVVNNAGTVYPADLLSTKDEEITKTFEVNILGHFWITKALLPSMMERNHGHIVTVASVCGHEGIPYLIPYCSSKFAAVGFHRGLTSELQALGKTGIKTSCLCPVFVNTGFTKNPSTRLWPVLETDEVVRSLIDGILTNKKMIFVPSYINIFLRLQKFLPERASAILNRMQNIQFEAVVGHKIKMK

SMILES	IC50
COc1ccc(C#Cc2nc(S(=O)(=O)Nc3cc(F)c(C(=O)O)cc3OC)cs2)cc1 [Example 221]	< 100 nM
COc1cc(C(=O)O)c(F)cc1NS(=O)(=O)c1csc(C#Cc2ccc(F)cc2)n1 [Example 222]	< 100 nM
COc1cc(C(=O)O)ccc1NS(=O)(=O)c1csc(C#Cc2ccc(C#N)cc2)n1 [Example 223]	1000 to 100000 nM
COc1cc(C(=O)O)ccc1NS(=O)(=O)c1csc(C#Cc2ccc(C(N)=O)cc2)n1 [Example 224]	1000 to 100000 nM
COc1cc(C(=O)O)ccc1NS(=O)(=O)c1csc(C#Cc2ccccc2C(F)(F)F)n1 [Example 225]	< 100 nM
COc1cc(C(=O)O)ccc1NS(=O)(=O)c1csc(C#Cc2ccc(OC(F)(F)F)cc2)n1 [Example 226]	100 to 500 nM
COc1cc(C(=O)O)c(F)cc1NS(=O)(=O)c1csc(C#Cc2ccc(C(F)(F)F)cc2)n1 [Example 227]	< 100 nM
COc1cc(C(=O)O)c(F)cc1NS(=O)(=O)c1csc(C#Cc2ccc(Cl)cc2)n1 [Example 228]	< 100 nM
COc1cc(C(=O)O)c(F)cc1NS(=O)(=O)c1csc(C#Cc2ccc(O)cc2)n1 [Example 229]	< 100 nM
COc1cc(C(=O)O)c(F)cc1NS(=O)(=O)c1ccc(-c2ccc(C(F)(F)F)cc2)s1 [Example 230]	100 to 500 nM
COc1cc(C(=O)O)c(F)cc1NS(=O)(=O)c1ccc(-c2ccc(F)cc2)s1 [Example 231]	< 100 nM
COc1cc(C(=O)O)c(F)cc1NS(=O)(=O)c1ccc(-c2ccc(Cl)cc2)s1 [Example 232]	< 100 nM
COc1cc(C(=O)O)c(F)cc1NS(=O)(=O)c1ccc(-c2ccc(C)cc2)s1 [Example 233]	100 to 500 nM
COc1cc(C(=O)O)c(F)cc1NS(=O)(=O)c1csc(C#Cc2cccc(Cl)c2)n1 [Example 234]	100 to 500 nM
COc1cc(C(=O)O)c(F)cc1NS(=O)(=O)c1csc(C#Cc2ccccc2Cl)n1 [Example 235]	< 100 nM
COc1cc(C(=O)O)c(F)cc1NS(=O)(=O)c1csc(C#Cc2cccc(C)c2)n1 [Example 236]	< 100 nM
COc1cc(C(=O)O)c(F)cc1NS(=O)(=O)c1csc(C#Cc2ccccc2C)n1 [Example 237]	100 to 500 nM
COc1cc(C(=O)O)ccc1NS(=O)(=O)c1csc(C#Cc2ccccc2OC(F)(F)F)n1 [Example 238]	< 100 nM
COc1cc(C(=O)O)ccc1NS(=O)(=O)c1csc(C#Cc2cccc(OC(F)(F)F)c2)n1 [Example 239]	< 100 nM
COc1cc(C(=O)O)c(F)cc1NS(=O)(=O)c1csc(C#Cc2ccc(C(C)(C)C)cc2)n1 [Example 240]	< 100 nM
COc1cc(C(=O)O)c(F)cc1NS(=O)(=O)c1csc(C#Cc2ccc(C(C)C)cc2)n1 [Example 241]	< 100 nM
COc1cccc(C#Cc2nc(S(=O)(=O)Nc3cc(F)c(C(=O)O)cc3OC)cs2)c1 [Example 242]	< 100 nM
COc1ccccc1C#Cc1nc(S(=O)(=O)Nc2cc(F)c(C(=O)O)cc2OC)cs1 [Example 243]	< 100 nM
COc1cccc(C#Cc2nc(S(=O)(=O)Nc3ccc(C(=O)O)cc3OC)cs2)n1 [Example 244]	500 to 1000 nM

SMILES	IC50
COc1ccnc(C#Cc2nc(S(=O)(=O)Nc3ccc(C(=O)O)cc3OC)cs2)c1 [Example 245]	1000 to 100000 nM
COc1cc(C#Cc2nc(S(=O)(=O)Nc3ccc(C(=O)O)cc3OC)cs2)ccn1 [Example 246]	500 to 1000 nM
COc1cc(C(=O)O)ccc1NS(=O)(=O)c1csc(C#Cc2cc(C(F)(F)F)[nH]c(=O)c2)n1 [Example 247, 3-methoxy-4-((2-((2-oxo-6-(trifluoromethyl)-1,2-dihydropyridin-4-yl)ethynyl)thiazole)-4-sulfonamido)benzoic acid]	100 to 500 nM
COc1cncc(C#Cc2nc(S(=O)(=O)Nc3ccc(C(=O)O)cc3OC)cs2)c1 [Example 248]	100 to 500 nM
COc1cc(C(=O)O)ccc1NS(=O)(=O)c1ccc(-c2cccc(-c3ccccc3)c2)s1 [Example 249, 4-((5-([1,1′-biphenyl]-3-yl)thiophene)-2-sulfonamido)-3-methoxybenzoic acid]	100 to 500 nM
COc1cc(C(=O)O)ccc1NS(=O)(=O)c1ccc(-c2cccc(-c3ccc(C)cc3)c2)s1 [Example 250, 3-methoxy-4-((5-(4′-methyl-[1,1′-biphenyl]-3-yl)thiophene)-2-sulfonamido)benzoic acid]	100 to 500 nM
COc1cc(C(=O)O)ccc1NS(=O)(=O)c1ccc(-c2cccc(-c3ccc(F)cc3)c2)s1 [Example 251]	100 to 500 nM
COc1cc(C(=O)O)ccc1NS(=O)(=O)c1ccc(-c2cccc(-c3ccc(C(F)(F)F)cc3)c2)s1 [Example 252]	500 to 1000 nM
COc1ccc(-c2cccc(-c3ccc(S(=O)(=O)Nc4ccc(C(=O)O)cc4OC)s3)c2)cc1 [Example 253]	100 to 500 nM
COc1cc(C(=O)O)ccc1NS(=O)(=O)c1ccc(-c2cccc(-c3ccc(OC(F)(F)F)cc3)c2)s1 [Example 254]	500 to 1000 nM
COc1cc(C(=O)O)ccc1NS(=O)(=O)c1csc(N2Cc3ccccc3C2)n1 [Example 255]	1000 to 100000 nM
COc1cc(C(=O)O)ccc1NS(=O)(=O)c1csc(N2CCC(c3ccccc3)CC2)n1 [Example 256]	1000 to 100000 nM
COc1cc(C(=O)O)ccc1NS(=O)(=O)c1csc(N2CCN(c3ccccc3)CC2)n1 [Example 257]	500 to 1000 nM
COc1cc(C(=O)O)ccc1NS(=O)(=O)c1csc(N2CCCC(Cc3ccccc3)C2)n1 (centres unmarked) [Example 258]	500 to 1000 nM
COc1cc(C(=O)O)ccc1NS(=O)(=O)c1csc(N2CCC(c3ccccc3)C2)n1 (centres unmarked) [Example 259]	1000 to 100000 nM
COc1cc(C(=O)O)ccc1NS(=O)(=O)c1csc(N2CCC(Cc3ccccc3)CC2)n1 [Example 260]	1000 to 100000 nM
COc1cc(C(=O)O)ccc1NS(=O)(=O)c1csc(N2CCCC(Nc3ccccc3)C2)n1 (centres unmarked) [Example 261]	500 to 1000 nM
COc1cc(C(=O)O)ccc1NS(=O)(=O)c1csc(N2CCC(c3ccccn3)CC2)n1 [Example 262]	1000 to 100000 nM
COc1cc(C(=O)O)ccc1NS(=O)(=O)c1csc(N2CCC(c3nnn[nH]3)CC2)n1 [Example 263]	1000 to 100000 nM
COc1cc(C(=O)O)ccc1NS(=O)(=O)c1csc(N2CCN(c3nccs3)CC2)n1 [Example 264]	1000 to 100000 nM
COc1cc(C(=O)O)ccc1NS(=O)(=O)c1csc(N2CCN(C3CCCC3)CC2)n1 [Example 265]	1000 to 100000 nM
COc1cc(C(=O)O)ccc1NS(=O)(=O)c1csc(N2CCN(c3ccc(OC(F)(F)F)cc3)C(=O)C2)n1 [Example 266]	1000 to 100000 nM
COc1cc(C(=O)O)ccc1NS(=O)(=O)c1csc(N2CC(c3ccccc3)C2)n1 [Example 267]	1000 to 100000 nM
COc1cc(C(=O)O)ccc1NS(=O)(=O)c1csc(N2CC=C(c3ccccc3)C2)n1 [Example 268]	100 to 500 nM

SMILES	IC50
COc1cc(C(=O)O)ccc1NS(=O)(=O)c1csc(N2CCCC(c3ccccc3)C2)n1 (centres unmarked) [Example 269]	100 to 500 nM
COc1cc(C(=O)O)ccc1NS(=O)(=O)c1csc(N2CCCCC2c2ccccc2)n1 (centres unmarked) [Example 270]	100 to 500 nM
COc1cc(C(=O)O)ccc1NS(=O)(=O)c1csc(N2CCN(c3ccc(OC(F)(F)F)cc3)CC2)n1 [Example 271]	100 to 500 nM
COc1cc(C(=O)O)ccc1NS(=O)(=O)c1csc(N2CCN(c3ccc(C(F)(F)F)cc3)CC2)n1 [Example 272]	100 to 500 nM
COc1cc(C(=O)O)ccc1NS(=O)(=O)c1csc(N2CCCC(NCc3ccccc3)C2)n1 (centres unmarked) [Example 273]	1000 to 100000 nM
COc1cc(C(=O)O)ccc1NS(=O)(=O)c1csc(N2CCCC(Cc3ccc(C)cc3)C2)n1 (centres unmarked) [Example 274]	500 to 1000 nM
COc1ccc(CC2CCCN(c3nc(S(=O)(=O)Nc4ccc(C(=O)O)cc4OC)cs3)C2)cc1 (centres unmarked) [Example 275]	1000 to 100000 nM
COc1cc(C(=O)O)ccc1NS(=O)(=O)c1csc(N2CCCC(Oc3ccccc3)C2)n1 (centres unmarked) [Example 276]	1000 to 100000 nM
COc1cc(C(=O)O)ccc1NS(=O)(=O)c1csc(N2CCCC(CCc3ccccc3)C2)n1 (centres unmarked) [Example 277]	1000 to 100000 nM
COc1cc(C(=O)O)ccc1NS(=O)(=O)c1csc(N2CCN(c3ccc(C)cc3)CC2)n1 [Example 278]	1000 to 100000 nM
COc1cc(C(=O)O)ccc1NS(=O)(=O)c1csc(N2CCC[C@@H](Cc3ccc(F)cc3)C2)n1 [Example 279]	1000 to 100000 nM
COc1cc(C(=O)O)ccc1NS(=O)(=O)c1csc(-c2ccc(-c3ccc(OC(F)(F)F)cc3)cc2)n1 [Example 280]	100 to 500 nM
COc1cc(C(=O)O)ccc1NS(=O)(=O)c1csc(-c2ccc(C3CCCCC3)cc2)n1 [Example 281, 4-((2-(4-cyclohexylphenyl)thiazole)-4-sulfonamido)-3-methoxybenzoic acid]	100 to 500 nM
COc1cc(C(=O)O)ccc1NS(=O)(=O)c1csc(N2CCN(c3cccc(OC(F)(F)F)c3)CC2)n1 [Example 282]	100 to 500 nM
COc1cc(C(=O)O)ccc1NS(=O)(=O)c1csc(N2CCCC(Cc3ccc(C(F)(F)F)cc3)C2)n1 (centres unmarked) [Example 283]	100 to 500 nM
COc1cc(C(=O)O)ccc1NS(=O)(=O)c1csc(-c2ccc(N3CCCCC3)cc2)n1 [Example 284]	100 to 500 nM
COc1cc(C(=O)O)ccc1NS(=O)(=O)c1csc(N2CCN(c3ccc(Br)cc3)CC2)n1 [Example 285]	1000 to 100000 nM
COc1cc(C(=O)O)ccc1NS(=O)(=O)c1csc(N2CCCC(C(=O)c3ccccc3)C2)n1 (centres unmarked) [Example 286]	500 to 1000 nM
COc1cc(C(=O)O)ccc1NS(=O)(=O)c1csc(N2CCN(C(=O)c3ccccc3)CC2)n1 [Example 287]	1000 to 100000 nM
COc1cc(C(=O)O)ccc1NS(=O)(=O)c1csc(N2CCN(c3ccc(-c4ccccc4)cc3)CC2)n1 [Example 288]	100 to 500 nM
COc1cc(C(=O)O)ccc1NS(=O)(=O)c1csc(N2C[C@@H]3C[C@H]2CN3c2ccccc2)n1 [Example 289]	500 to 1000 nM
COc1cc(C(=O)O)ccc1NS(=O)(=O)c1csc(N2CCN(S(=O)(=O)c3ccc(C)cc3)CC2)n1 [Example 290]	1000 to 100000 nM
COc1cc(C(=O)O)ccc1NS(=O)(=O)c1csc(N2CCN(c3ccc(N(C)C)cc3)CC2)n1 [Example 291]	1000 to 100000 nM
